Earlier results in paper PMC9834611 (Pharmacology Research & Perspectives, 2023).

Key:
[1] = cited from earlier work
ABCB1 = tested on: ABCB1; design: method as in PMID 11770010; details: Caco‐2 cell lines; cited from earlier work
CYP3A4 = tested on: CYP3A4; design: method as in PMID 25141173; details: cited from earlier work

Row | SMILES | LD50 compared with parent VBL [1] | effect on ABCB1 (ABCB1) | increase in CYP3A4 mRNA expression (CYP3A4) | effect on CYP3A4 (CYP3A4; human hepatocytes)
1 | CC[C@]1(O)C[C@@H]2CN(CCc3c([nH]c4ccccc34)[C@@](C(=O)OC)(c3cc4c(cc3OC)N(C)[C@H]3[C@@](O)(C(=O)OC)[C@H](O)[C@]5(CC)C=CCN6CC[C@]43[C@@H]65)C2)C1 [4‐deacetylvinblastine] | lower than that of the parent |  |  | 
2 | COc1ccc2[nH]c([S+]([O-])Cc3ncc(C)c(OC)c3C)nc2c1 (stereo not shown) [Omeprazole] |  | inhibitor | twofold | inducer
